Patent publication US8673964B2, “Use of drug combinations for treating insulin resistance” (DiaMedica Inc., priority 2004, dated 2014)
Where “and” joins values, the source holds several entries; their conditions need not be identical. Equal values may be shown once.

Columns and labels:
sucrose fed rats = assay: Rapid insulin sensitivity test (RIST): meal induced insulin sensitization in control diet and sucrose fed rats; assay type: in vivo, Sprague Dawley rats; details: individual animals
Method: Animal Groups—Male Sprague Dawley rats having a starting weight of ≧220.0 g (Charles River, St. Constant, Quebec, Canada) were fed a normal rat chow diet and regular tap water, with and without the exposure to a 35% liquid sucrose solution for a 2 week period. Six groups of animals were established under the following treatments: […] (2) control diet, bethanechol (0.5 μg/kg ipv) and N-acetyl-L-cysteine (200 mg/kg) treatment (n=8); (3) control diet, bethanechol (0.5 μg/kg ipv) (n=5); (4) control diet, N-acetyl-L-cysteine (200 mg/kg) (n=4); (5) sucrose diet, saline treatment (n=4); (6) sucrose diet, bethanechol (0.5 μg/kg ipv) and N-acetyl-L-cysteine (200 mg/kg) treatment (n=5); (7) sucrose diet, bethanechol (0.5 μg/kg ipv) (n=6); and (8) sucrose diet, N-acetyl-L-cysteine (200 mg/kg) (n=3). Methodology—All animals are 24 hour fasted. The animals are prepared using the standard RIST surgical preparation. The rats are anaesthetized with an intraperitoneal injection of sodium pentobarbital (65 mg kg-1; Somnotol, MTC Pharmaceuticals, Ont). […] The rats are placed on a temperature-controlled surgical table (Harvard Apparatus, Kent, England) and rectal temperature is monitored and held at 37-37.5° C. Spontaneous respiration is allowed through a tracheal tube. An arterial-venous shunt is established, as previous described (Lautt W W et al. Can J Physiol Pharmacol. 1998; 76 (12): 1080-6), for monitoring mean arterial blood pressure (MAP), blood glucose level and for drug delivery. Briefly, two catheters (polyethylene tubing PE60), one inserted into the right femoral artery and the other into the right femoral vein, are connected to the two openings of a three way vascular circuit consisting of a T tube connected with silicon tubing. The third opening of the circuit is connected to a pressure transducer for the recording of the shunt pressure which, when the silicon tubing toward the venous side of the circuit is closed by clamping, represented the systemic arterial blood pressure. Blood samples are taken from the arterial side of the shunt for the glucose measurement. Flowing blood within the shunt assures the real time measurement of the blood glucose concentration, which is essential for the euglycemic clamp test as mentioned below. An infusion line is inserted into the venous side of the loop for drug delivery. Another infusion line connected to the jugular vein is established for glucose infusion. Animals are heparinized (100 IU·kg-1) to prevent clotting in the vascular loop. […] A control RIST is performed as previously described (Lautt W W et al. Can J Physiol Pharmacol. 1998; 76 (12): 1080-6). […] The baseline glucose levels are then determined by samples taken at 5-min intervals and continued until three successive stable determinations were made. […]

[1] = tested on: Rats with Insulin Resistance Produced by Hepatic Denervation; assay: RIST in rats with insulin resistance produced by hepatic denervation; assay type: in vivo
Method: Methodology—All animals are 24 hour fasted. The animals are prepared using the standard RIST surgical preparation. The rats are anaesthetized with an intraperitoneal injection of sodium pentobarbital (65 mg kg-1; Somnotol, MTC Pharmaceuticals, Ont). Maintained anesthesia is achieved throughout the experiment by a continuous infusion of pentobarbital sodium (0.5 mg·ml-1 saline given at 50 μl·min-1) through a cannula in the jugular vein, supplemented with a 0.65 mg (0.01 ml) bolus injection when required. The rats are placed on a temperature-controlled surgical table (Harvard Apparatus, Kent, England) and rectal temperature is monitored and held at 37-37.5° C. Spontaneous respiration is allowed through a tracheal tube.
An arterial-venous shunt is established, as previous described (Lautt W W et al. Can J Physiol Pharmacol. 1998; 76 (12): 1080-6), for monitoring mean arterial blood pressure (MAP), blood glucose level and for drug delivery. Briefly, two catheters (polyethylene tubing PE60), one inserted into the right femoral artery and the other into the right femoral vein, are connected to the two openings of a three way vascular circuit consisting of a T tube connected with silicon tubing. The third opening of the circuit is connected to a pressure transducer for the recording of the shunt pressure which, when the silicon tubing toward the venous side of the circuit is closed by clamping, represented the systemic arterial blood pressure. Blood samples are taken from the arterial side of the shunt for the glucose measurement. […]
A control RIST is performed as previously described (Lautt W W et al. Can J Physiol Pharmacol. 1998; 76 (12): 1080-6). […] The baseline glucose levels are then determined by samples taken at 5-min intervals and continued until three successive stable determinations were made. […] After 1-min of insulin infusion, the first test glucose sample is determined and a variable glucose infusion (10%) is initiated. […]

SMILES: CC(C[N+](C)(C)C)OC(N)=O (stereo not shown) [Bethanechol, bethanechol]
- percent potentation of RIST as compared to control (sucrose fed rats; Control Diet, bethanechol 0.5 μg/kg ipv alone, listed as BCH): 9.06% and 15.19% and 35.62% and 33.87% and 60.33%
- percent potentation of RIST as compared to control (sucrose fed rats; Sucrose Diet, bethanechol 0.5 μg/kg ipv alone, listed as BCH): 45.59% and 13.22% and −13.22% and 14.22% and 7.71% and 22.36%
- RIST index after surgical hepatic denervation ([1]; bethanechol infusion into the portal vein 2.5 mg/kg/min from 10 minutes prior to insulin, entire test period): reversal of the insulin resistance

SMILES: [NH-]c1c[n+](N2CCOCC2)no1 [SIN-1, 3-morpholinosyndnonimine]
- RIST index after surgical hepatic denervation ([1]; SIN-1 infusion into the portal vein 10.0 mg/kg/min for 2 minutes): reversal of the insulin resistance

SMILES: CC(=O)N[C@@H](CS)C(=O)O [NAC, N-acetyl-L-cysteine]
- percent potentation of RIST as compared to control (sucrose fed rats; Control Diet, N-acetyl-L-cysteine 200 mg/kg alone): 33.5% and 27.39% and 57.25% and 1.89%
- percent potentation of RIST as compared to control (sucrose fed rats; Sucrose Diet, N-acetyl-L-cysteine 200 mg/kg alone): 3% and −13.85% and −2.63%
- RIST index after surgical hepatic denervation ([1]; NAC (200 mg/mL) infusion into the portal vein 0.1 mL/min for 2 minutes): reversal of the insulin resistance
